Assay results: patent publication US5366726A (priority 1992, dated 1994)
Values joined by “and” are separate entries in the source; they are usually repeats but may differ in a detail not shown here. Equal values may be shown once. “Also recorded” adds a separate entry of the source. Read-outs that look alike come from different tables or passages of the source.

Legend:
[1] = parenteral pentamidine, TMP-SMX; cited from earlier work
[2] = tested on: Pneumocystis carinii; conditions: cited from earlier work; for Vital Capacity: percent predicted
[3] = Example 3: serum pentamidine concentrations; type: in vivo; conditions: human, inhaled or intranasal, 300 mg, serum pentamidine concentration at end of therapy, 2 patients
[4] = design: species or system human; conditions: in vivo
From the text: (§1) Chest radiographs and arterial blood gas tensions were obtained as clinically indicated.
Liver function SGOT or SGPT
Rash with fever or mucositis
Cough cough or bronchospasm un-

[5] = design: species or system human; conditions: in vivo; remark: listed apart in the source
From the text: (§2) Five patients who developed PCP within 28 days were not evaluated. One hundred (66%) of the patients were concurrently receiving AZT, and 42 (28%) had experienced one prior episode of PCP.

[6] = Example 1: toxicity of inhaled vs intravenous pentamidine in patients; conditions: for major toxicity: neutropenia
[7] = cited from earlier work
[8] = design: species or system human; conditions: in vivo; remark: listed apart in the source
From the text: Within 30 days of initiation of prophylaxis, ten patients were omitted due to treatment (9) or relapse (1). Of the 93 patients, 48 had had at least one previous episode of PCP. Two-thirds of the patients were taking AZT at the onset and throughout the duration of the post-exposure prophylaxis. The median and maximum duration of treatment at the time of analysis was 3.1 and 5.2 months.

[9] = human, in vivo
[10] = human, in vivo; remark: listed apart in the source
[11] = tested on: Pneumocystis carinii; test: Example 1: treatment of P. carinii pneumonia, inhaled vs intravenous pentamidine; type: in vivo, human
[12] = tested on: Pneumocystis carinii; type: in vivo, human
[13] = Example 2: aerosol particle size, Mercer cascade impactor; type: physicochemical
From the text: A compressed oxygen (5-7 L/min at 345 kPa, 50 psi) powered nebulizer produces the aerosol and one-way valves provide for entrainment of room air in patients whose minute ventilation is high, act as a baffle to decrease particle size, and direct expired air to a filter which removes the remaining particles of drug thereby preventing environmental contamination.
Particles were sized with a 7 stage Mercer cascade impactor (Intox Products, Albuquerque, N. Mex.). The gas supply was 6 L/min, the sample stream was not dried, and the impactor flow rates were 0.5 L/min. […] Results from the average of three determinations at each location were expressed as mass median aerodynamic diameter±geometric standard deviation (MMAD±GSD). Raabe, J Aerosol Sci (1971) 2:289-303.

[14] = tested on: Pneumocystis carinii; test: Example 6: prevention of PCP, different dosages and regimens; type: in vivo, human; conditions: of 372, at least one treatment
From the text: A total of 438 participants were selected on the basis of seropositivity for HIV, and were stratified on the basis of (i) prior PCP (n=250), (ii) Kaposi's sarcoma (n=59) or (iii) ARC (n=129).

[15] = Example 2: pentamidine in BAL supernatant, BAL sediment and serum (HPLC); type: in vivo, human
From the text: The patients were divided into two groups.

[16] = Example 1: pentamidine concentrations in plasma and bronchoalveolar lavage fluid (HPLC); type: in vivo, human; conditions: for Plasma conc. on Day 1: peak during or end of inhalation, single patients
Protocol: For six inhalation patients (1, 4, 6, 7, 15, and 16) and five i.v. patients (2, 3, 5, 8, and 22), plasma samples were obtained at the completion of therapy and at 0.17, 0.5, 1, 1.5, 2, 2.5, 3, 4, 5, 6, 8, 10, 12, and 18 hours following initiation of therapy. For patients 9-14 and 17-21, trough and peak plasma samples were collected for the first three days, then weekly during therapy. Trough and peak samples were obtained on days 2, 3, 4, 5, 7, 11, and 13 for patient 2, days 2, 3, 4, 5, 7, and 12 for patient 3, days 2, 3, 4, 5, 13 and 18 for patient 5, and days 2, 3, 4, 5, and 11 for patient 8.

[17] = tested on: Pneumocystis carinii; type: in vivo, human; remark: listed apart in the source
From the text: The initial diagnosis of P. carinii pneumonia was based on finding the organism in induced sputum or bronchoalveolar lavage specimens.
Treatment was as described in Example 3.
as §1

[18] = Respirgard or UltraVent, any dose or duration
[19] = tested on: Pneumocystis carinii; test: Example 7: prevention of PCP, 300 mg twice per month vs 600 mg once per month; type: in vivo, human
From the text: as §2

N=C(N)c1ccc(OCCCCCOc2ccc(C(=N)N)cc2)cc1 [pentamidine, p,p'-(pentamethylenedioxy)dibenzamidine]
rate of severe reactions [1]: 50%
PaO2 ([2]; post therapy, TMP-DPS only 8 patients tested): 87.2 torr
DLCO ([2]; post therapy): 62
Vital Capacity ([2]; post therapy): 80
DLCO ([2]; pre therapy): 59.0
PaO2 ([2]; pre therapy): 69.3 torr
Vital Capacity ([2]; pre therapy): 70
concentration at 504 h [3]: 22 ng/mL
mild cough controlled by metaproterenol, patients (aerosol): 9 patients
severe coughing, patients (aerosol, all smokers): 3 patients
adverse systemic reactions (renal, liver, hematologic, hypoglycemia, hypotension) (in vivo): No adverse systemic reactions
air-way obstruction (in vivo): Neither clinical nor spirometric evidence of air-way obstruction occurred
clinical bronchospasm (in vivo): not seen
coughing with therapy, patients (in vivo): Twelve
Toxicity Req Change of Therapy (n = 15): 0(0) n (%)
severe adverse reactions [4]: No patient developed any severe adverse reactions
prophylaxis discontinued due to bronchospasm, patients [5]: one
minor toxicity (rash), patients ([6]; inhaled): One
major toxicity ([6]; inhaled, patients also received AZT): 20%
minor toxicity (elevated serum creatinine, depressed leukocyte count), patients ([6]; intravenous): four
required a change of therapy due to toxicity ([6]; intravenous): 11%
major toxicity ([6]; intravenous, hepatotoxicity): 22%
less common adverse effects ([7]; human, in vivo): cardiac arrhythmias and pancreatitis
local reactions at site of intramuscular injection ([7]; intramuscular): Pain, swelling and sterile abscesses
generalized or local reactions, intravenous ([7]; intravenous): thrombophlebitis and generalized or localized urticarial eruptions
hypoglycemia ([7]; parenteral): Hypoglycemia has also been reported
impaired renal function ([7]; parenteral): about 25%
other common adverse reactions ([7]; parenteral): elevation of liver enzymes, hematologic disturbances with neutropenia and thrombocytopenia, fever, hypocalcemia, and hallucinations
hypotension ([7]; single intramuscular dose or rapid intravenous infusion): Severe hypotension
major pentamidine-related toxicity [8]: No major pentamidine-related toxicity
airway mucosal damage at repeat bronchoscopy [9]: has not revealed evidence of airway mucosal damage
hypotension or dysglycemia [9]: no episodes of hypotension or dysglycemia
mild inhalation-associated cough, patients [9]: Eight of thirteen
mucosal damage at repeat bronchoscopy [9]: evidence of mucosal damage has not been observed
pentamidine-related reactions in some patients [9]: cough, bronchospasm, or temperature elevation
reversible bronchospasm, patients [9]: five
signs or symptoms of bronchitis or bronchospasm between inhalations [9]: not present
only frequent adverse effect observed clinically [10]: transient airway irritation
successfully treated patients with relapses ([11]; inhaled): three of ten
Outcome of therapy ([11]; inhaled, 4 mg/Kg, UltraVent, single patients): success; also recorded: failed
patients readmitted and treated for P. carinii pneumonia after discharge ([11]; inhaled, at one, three and two months): Three
Time to discharge, all patients in group ([11]; inhaled, based on 9 successful patients): 15 ± 1 days
patients with satisfactory outcome ([11]; inhaled, of the remaining ten evaluated patients): nine
recurrence of PCP at follow-up ([11]; inhaled, remaining six, one to nine months following discharge): no recurrence of PCP
Time to discharge ([11]; inhaled, single patients): 9 days
patients with satisfactory outcome ([11]; intravenous): Eight of nine
Outcome of therapy ([11]; intravenous, 3 mg/Kg, single patients): success; also recorded: failed
Time to discharge, all patients in group ([11]; intravenous, based on 8 successful patients): 14 ± 2 days
relapses at follow-up ([11]; intravenous, four patients, five to six months): no reported relapses
dyspnea, respiratory rate and fever ([12]; all 13 patients treated successfully): marked reduction
patients who died of progressive respiratory failure ([12]; concomitant tuberculosis, changed to TMP-SMX day 7): One
clinical improvement during second week, patients ([12]; in vivo): 3 patients
clinical improvement in first week, patients ([12]; in vivo): Ten
Successful Treatment w/ Change ([12]; n = 15): 14(93) n (%)
Successful Treatment w/o Change ([12]; n = 15): 13(86) n (%)
worsened infiltrates at one week with subsequent improvement, patients ([12]; of 13): Five
worsened or no improvement for first two weeks, then improvement, patients ([12]; of 13): 4 patients
radiographic improvement beginning by second week, patients ([12]; of 13 patients treated successfully): 4
average hospital stay ([12]; patients treated successfully): 8 days
mass of particles larger than 4 μm ([13]; at mouth-piece): less than 5%
particle size MMAD ([13]; at mouth-piece (point B), ± GSD 1.88): 1.42±1.88 μm
mass of particles larger than 4 μm ([13]; distal to nebulizer): greater than 20%
participants who experienced relapse [14]: 17
BAL sediment concentration, aerosol vs intravenous group ([15]; 18-24 h): 10-100 fold
mean BAL supernatant (aerosol) vs sediment (intravenous) concentration, factor ([15]; 18-24 h): more than 2
systemic absorption ([15]; after aerosol administration): Little or no systemic absorption
Cmax ([16]; human, plasma, intravenous, 3 mg/Kg, read-out: mean peak plasma concentration during first infusion): 260 ± 56 ng/mL
plasma samples with no detectable drug ([16]; inhaled): approximately two-thirds
lavage fluid concentration, inhalation vs iv-treated patients ([16]; inhaled vs intravenous): approximately 10 fold
Plasma conc. on Day 1 ([16]; inhaled): 0.0 ng/mL
Plasma conc. on Day 1 ([16]; inhaled, 1440 min): 3.1 ng/mL and 14.7 ng/mL and 16.9 ng/mL and 7.3 ng/mL and 32.8 ng/mL and 12.3 ng/mL and 2.5 ng/mL and 7.4 ng/mL and 7.8 ng/mL and 35.0 ng/mL and 30.9 ng/mL and 9.2 ng/mL
maximum plasma concentration during remainder of therapy, single patients ([16]; intravenous, patient 3 day 5 (lowest), patient 19 day 14 (highest)): 164 ng/mL and 1360 ng/mL
hypoxia, fever, dyspnea ([17]; 10 patients): none of the patients were hypoxic or febrile, all had improvement in dyspnea
completion of therapy ([17]; 10 patients, 4 to 17 days): All patients successfully completed therapy
chest radiographs ([17]; current or subsequent): roentrographic improvement of infiltrates
dose remaining in the nebulizer after inhalation [18]: approximately one third
attack rate at 6.38 months ([19]; 300 mg twice or 600 mg once per month, p<0.01 vs previous study): 3%
deaths associated with PCP ([19]; 3 deaths): 2%
deaths due to other causes ([19]; 9 deaths): 6%
evaluable patients who died ([19]; 12 of 146): 8%
